What was measured:
conchae of hairless mice = assay: Vasodilating effect on the conchae of hairless mice, visual evaluation of red spots (Examples 2 and 4); assay type: in vivo, hairless mouse (HR-1, female); conditions: for Vasodilating effect, 1 wt %: 1 wt % in liquid paraffin; for Vasodilating effect, 1 wt % / Vasodilating effect, 5 wt %: symbols not defined in the patent; for Vasodilating effect, 5 wt %: 5 wt % in liquid paraffin; for Activity compared with capsiate: statement in the description; for Remarks: vasodilating effect: in liquid paraffin
From the text: The vasodilating effects of capsinoids (a mixed product prepared by the method stated in Reference Example (5) was employed; see below) and capsaicin was compared using the conchae of hairless mice.
Test Method: A sample was applied on the right ear and a control was applied on the left ear of a hairless mouse (HR-1, female), and the development of red spots was visually evaluated.
Sample: (1) Capsinoids (1 weight percent and 5 weight percent dissolved in liquid paraffin)
(2) Capsaicin (1 weight percent and 5 weight percent dispersed in liquid paraffin)
(§1) In the same manner as in Example 2, the vasodilating effects of various capsinoid compounds were compared using the conchae of hairless mice. The samples were dissolved in liquid paraffin.

[1] = Dissolution of the sample in liquid paraffin (Example 4); assay type: physicochemical
Procedure: as §1

COc1cc(CNC(=O)CCCC/C=C/C(C)C)ccc1O [Capsaicin, capsaicin, reference compound]
Remarks: red spots still caused after (conchae of hairless mice; 1 weight percent application): even after two hours
Persistence of red spots (conchae of hairless mice; 1 weight percent dispersed in liquid paraffin): retained their original form even after two hours
Development of red spots (visual evaluation) (conchae of hairless mice; 1 weight percent in liquid paraffin, applied on ear): red spots were observed
Vasodilating effect, 1 wt % (conchae of hairless mice): ◯
Development of red spots (visual evaluation) (conchae of hairless mice; 5 weight percent in liquid paraffin, 30 minutes after application): clear red spots were observed
Vasodilating effect, 5 wt % (conchae of hairless mice): ◯

COc1cc(COC(=O)CCCC/C=C/C(C)C)ccc1O [Capsiate, 4-hydoxy-3-methoxybenzyl (E)-8-methyl-6-nonenoate]
Vasodilating effect, 1 wt % (conchae of hairless mice): Δ
Remarks: weak red spots still caused after (conchae of hairless mice; 5 weight percent application): caused even after 90 minutes
Vasodilating effect, 5 wt % (conchae of hairless mice): ◯

COc1cc(COC(=O)CCCCCCC(C)C)ccc1O [Dihydrocapsiate, 4-hydroxy-3-methoxybenzyl 8-methylnonanoate]
Vasodilating effect, 1 wt % (conchae of hairless mice): Δ
Remarks: weak red spots still caused after (conchae of hairless mice; 5 weight percent application): caused even after 90 minutes
Vasodilating effect, 5 wt % (conchae of hairless mice): ◯

COc1cc(COC(=O)CCCCCC(C)C)ccc1O [Nordihydrocapsiate, nordihydrocapsiate]
Vasodilating effect, 1 wt % (conchae of hairless mice): Δ
Remarks: weak red spots still caused after (conchae of hairless mice; 5 weight percent application): caused even after 90 minutes
Vasodilating effect, 5 wt % (conchae of hairless mice): ◯

CCC(C)CCCCC(=O)OCc1ccc(O)c(OC)c1 (centres unmarked) [Vanillyl 6-methyloctanoate, vanillyl 6-methyloctanoate]
Remarks: disappearance of the vasodilating effect (conchae of hairless mice; 5 weight percent application): disappeared in about two hour
Vasodilating effect, 5 wt % (conchae of hairless mice): ◯
Activity compared with capsiate (conchae of hairless mice): about the same degree of activity as capsiate

CCC(C)CCCCCC(=O)OCc1ccc(O)c(OC)c1 (centres unmarked) [Vanillyl 7-methylnonanoate, vanillyl 7-methylnonanoate]
Remarks: disappearance of the vasodilating effect (conchae of hairless mice; 5 weight percent application): disappeared in about two hour
Vasodilating effect, 5 wt % (conchae of hairless mice): ◯
Activity compared with capsiate (conchae of hairless mice): about the same degree of activity as capsiate

CCC(C)CCCCCCC(=O)OCc1ccc(O)c(OC)c1 (centres unmarked) [Vanillyl 8-methyldecanoate, vanillyl 8-methyldecanoate]
Remarks: disappearance of the vasodilating effect (conchae of hairless mice; 5 weight percent application): disappeared in about two hour
Vasodilating effect, 5 wt % (conchae of hairless mice): ◯
Activity compared with capsiate (conchae of hairless mice): about the same degree of activity as capsiate

COc1cc(COC(=O)CCCCCCCC(C)C)ccc1O [Vanillyl 9-methyldecanoate, vanillyl 9-methyldecanoate]
Remarks: disappearance of the vasodilating effect (conchae of hairless mice; 5 weight percent application): disappeared in about two hour
Vasodilating effect, 5 wt % (conchae of hairless mice): ◯
Activity compared with capsiate (conchae of hairless mice): about the same degree of activity as capsiate

COc1cc(CO)ccc1O [Vanillyl alcohol, reference compound]
Remarks: vasodilating effect (conchae of hairless mice): No vasodilating effect

CCCCCCCCCC(=O)OCc1ccc(O)c(OC)c1 [Vanillyl decanoate, 4-hydroxy-3-methoxybenzyl decanoate (caprate)]
Vasodilating effect, 5 wt % (conchae of hairless mice): ◯
Remarks: disappearance of the vasodilating effect (conchae of hairless mice; concentration not given): Vasodilating effect disappeared in about one hour
Activity compared with capsiate (conchae of hairless mice): about the same degree of activity as capsiate

CCCCCCCCCCCC(=O)OCc1ccc(O)c(OC)c1 [Vanillyl dodecanoate]
Remarks: vasodilating effect (conchae of hairless mice): No vasodilating effect

CC/C=C\C/C=C\C/C=C\CCCCCCCC(=O)OCc1ccc(O)c(OC)c1 [Vanillyl linolenate]
Remarks: vasodilating effect (conchae of hairless mice): No vasodilating effect

CCCCCCCCCCCCCCCCCC(=O)OCc1ccc(O)c(OC)c1 [Vanillyl octadecanoate]
Remarks: vasodilating effect (conchae of hairless mice): No vasodilating effect

CCCCCCCC(=O)OCc1ccc(O)c(OC)c1 [Vanillyl octanoate, 4-hycroxy-3-methoxybenzyl octanoate]
Vasodilating effect, 5 wt % (conchae of hairless mice): ◯
Remarks: disappearance of the vasodilating effect (conchae of hairless mice; concentration not given): Vasodilating effect disappeared in about one hour
Activity compared with capsiate (conchae of hairless mice): about the same degree of activity as capsiate

CCCCCCCC/C=C\CCCCCCCC(=O)OCc1ccc(O)c(OC)c1 [Vanillyl oleate]
Remarks: vasodilating effect (conchae of hairless mice): No vasodilating effect

CCCCCCCCCCCCCCC(=O)OCc1ccc(O)c(OC)c1 [Vanillyl pentadecanoate]
Remarks: dissolution in liquid paraffin [1]: Not dissolved

CCCCCCCCCCCCC(=O)OCc1ccc(O)c(OC)c1 [Vanillyl tridecanoate]
Remarks: vasodilating effect (conchae of hairless mice): No vasodilating effect

CCCCCCCCCCC(=O)OCc1ccc(O)c(OC)c1 [Vanillyl undecanoate, vanillyl undecanoate]
Vasodilating effect, 5 wt % (conchae of hairless mice): ◯
Remarks: disappearance of the vasodilating effect (conchae of hairless mice; concentration not given): the effect disappeared more quickly than for C10.
Activity compared with capsiate (conchae of hairless mice): about the same degree of activity as capsiate

CCCCCCCCC(=O)OCc1ccc(O)c(OC)c1 [vanillyl nonanoate, 4-hydroxy-3-methyloxybenzyl nonanoate]
Activity compared with capsiate (conchae of hairless mice): about the same degree of activity as capsiate
